Measured values reported in patent US20150087627A1, “COMBINATION OF KINASE INHIBITORS AND USES THEREOF” (Intellikine LLC, priority 2011, published 2015).

How the values were obtained:
Format in all cases: biochemical
[1] = molecular target: T1, PI3K α (p110α/p85α) (Homo sapiens, UniProt P42336); test: PI 3-Kinase (human) HTRF assay, PI3K α; conditions: read-out: PI3K α IC50
T1 construct: purchased Upstate / Millipore Corporation

[2] = molecular target: T2, PI3K δ (Homo sapiens, UniProt O00329); test: PI 3-Kinase (human) HTRF assay, PI3K δ; conditions: read-out: PI3K δ IC50
T2 construct: purchased Upstate / Millipore Corporation

[3] = molecular target: T3, PI3K β (p110β/p85α) (Homo sapiens, UniProt P42338); test: PI 3-Kinase (human) HTRF assay, PI3K β; conditions: read-out: PI3K β IC50
T3 construct: purchased Upstate / Millipore Corporation
T3 sequence (P42338 whole entry): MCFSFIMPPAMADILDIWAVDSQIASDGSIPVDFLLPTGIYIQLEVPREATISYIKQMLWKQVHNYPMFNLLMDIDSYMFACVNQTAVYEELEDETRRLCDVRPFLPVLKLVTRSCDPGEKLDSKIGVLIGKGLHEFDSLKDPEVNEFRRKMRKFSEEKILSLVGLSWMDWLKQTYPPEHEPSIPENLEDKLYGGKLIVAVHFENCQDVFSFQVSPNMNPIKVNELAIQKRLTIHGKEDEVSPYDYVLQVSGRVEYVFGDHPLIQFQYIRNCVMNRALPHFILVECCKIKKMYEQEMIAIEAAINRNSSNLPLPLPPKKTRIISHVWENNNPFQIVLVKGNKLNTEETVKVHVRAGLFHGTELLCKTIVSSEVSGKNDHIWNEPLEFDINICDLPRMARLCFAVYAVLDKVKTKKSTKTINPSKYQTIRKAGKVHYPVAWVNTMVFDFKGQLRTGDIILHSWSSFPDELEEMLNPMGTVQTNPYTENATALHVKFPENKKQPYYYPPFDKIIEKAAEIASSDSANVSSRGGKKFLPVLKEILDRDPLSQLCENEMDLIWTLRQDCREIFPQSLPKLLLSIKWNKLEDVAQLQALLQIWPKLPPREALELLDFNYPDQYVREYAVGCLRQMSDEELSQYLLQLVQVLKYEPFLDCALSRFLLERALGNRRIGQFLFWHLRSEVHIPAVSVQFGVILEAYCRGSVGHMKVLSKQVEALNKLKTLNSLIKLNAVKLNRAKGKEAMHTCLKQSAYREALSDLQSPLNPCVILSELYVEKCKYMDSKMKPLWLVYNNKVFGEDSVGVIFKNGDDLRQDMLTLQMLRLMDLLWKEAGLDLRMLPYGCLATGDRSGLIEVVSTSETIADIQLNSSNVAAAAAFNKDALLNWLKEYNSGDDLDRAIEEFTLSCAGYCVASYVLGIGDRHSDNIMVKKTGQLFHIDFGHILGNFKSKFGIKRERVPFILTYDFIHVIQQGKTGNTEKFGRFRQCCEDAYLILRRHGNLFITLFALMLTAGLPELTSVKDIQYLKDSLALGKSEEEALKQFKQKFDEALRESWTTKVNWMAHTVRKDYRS
T3 sequence (P27986 whole entry partner): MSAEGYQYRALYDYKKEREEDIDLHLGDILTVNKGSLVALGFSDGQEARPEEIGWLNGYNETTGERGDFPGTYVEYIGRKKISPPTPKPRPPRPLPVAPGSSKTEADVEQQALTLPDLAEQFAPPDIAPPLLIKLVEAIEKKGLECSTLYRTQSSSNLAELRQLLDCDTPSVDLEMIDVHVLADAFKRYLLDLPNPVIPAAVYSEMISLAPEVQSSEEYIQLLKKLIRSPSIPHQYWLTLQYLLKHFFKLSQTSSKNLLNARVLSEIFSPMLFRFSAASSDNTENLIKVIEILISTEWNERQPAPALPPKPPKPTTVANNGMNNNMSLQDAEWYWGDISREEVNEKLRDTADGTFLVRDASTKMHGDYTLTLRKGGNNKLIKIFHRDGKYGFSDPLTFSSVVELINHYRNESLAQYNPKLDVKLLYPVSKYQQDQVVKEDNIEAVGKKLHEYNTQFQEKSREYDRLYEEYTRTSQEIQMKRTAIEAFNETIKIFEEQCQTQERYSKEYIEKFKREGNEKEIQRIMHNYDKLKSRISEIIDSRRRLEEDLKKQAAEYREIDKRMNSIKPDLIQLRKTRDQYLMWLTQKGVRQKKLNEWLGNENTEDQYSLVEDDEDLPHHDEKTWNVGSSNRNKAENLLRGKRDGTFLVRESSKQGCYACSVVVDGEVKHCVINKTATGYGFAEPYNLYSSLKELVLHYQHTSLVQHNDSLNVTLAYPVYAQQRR

T2 sequence (O00329 whole entry): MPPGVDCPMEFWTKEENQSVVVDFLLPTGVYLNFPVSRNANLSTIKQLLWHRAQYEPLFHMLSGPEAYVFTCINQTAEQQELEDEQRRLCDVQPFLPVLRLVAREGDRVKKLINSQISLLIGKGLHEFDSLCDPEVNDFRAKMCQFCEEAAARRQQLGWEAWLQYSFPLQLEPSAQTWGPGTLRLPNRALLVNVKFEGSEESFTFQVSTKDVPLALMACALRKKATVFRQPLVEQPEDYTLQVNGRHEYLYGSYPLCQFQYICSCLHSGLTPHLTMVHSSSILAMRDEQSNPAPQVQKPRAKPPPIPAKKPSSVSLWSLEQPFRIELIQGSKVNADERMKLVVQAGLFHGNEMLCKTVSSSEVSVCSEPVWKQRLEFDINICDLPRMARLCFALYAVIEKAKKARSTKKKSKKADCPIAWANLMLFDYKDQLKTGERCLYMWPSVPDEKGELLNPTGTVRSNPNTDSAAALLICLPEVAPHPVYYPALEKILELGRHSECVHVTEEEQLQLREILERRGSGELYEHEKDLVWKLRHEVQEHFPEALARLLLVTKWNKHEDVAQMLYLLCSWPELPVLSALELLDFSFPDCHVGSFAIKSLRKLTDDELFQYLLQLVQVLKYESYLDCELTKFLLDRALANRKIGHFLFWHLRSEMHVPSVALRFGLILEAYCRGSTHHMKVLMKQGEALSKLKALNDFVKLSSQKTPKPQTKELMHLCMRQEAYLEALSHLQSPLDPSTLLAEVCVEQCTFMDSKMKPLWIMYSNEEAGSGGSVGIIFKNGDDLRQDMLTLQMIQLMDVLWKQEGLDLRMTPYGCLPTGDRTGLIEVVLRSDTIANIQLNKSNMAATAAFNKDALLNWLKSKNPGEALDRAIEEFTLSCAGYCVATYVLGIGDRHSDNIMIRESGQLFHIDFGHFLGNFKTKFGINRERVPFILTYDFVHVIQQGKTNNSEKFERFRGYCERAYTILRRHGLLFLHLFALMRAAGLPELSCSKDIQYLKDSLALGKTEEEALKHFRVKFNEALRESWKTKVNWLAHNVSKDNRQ
T2 sequence (P27986 whole entry partner): as the sequence (P27986 whole entry partner) above
T1 sequence (P42336 whole entry): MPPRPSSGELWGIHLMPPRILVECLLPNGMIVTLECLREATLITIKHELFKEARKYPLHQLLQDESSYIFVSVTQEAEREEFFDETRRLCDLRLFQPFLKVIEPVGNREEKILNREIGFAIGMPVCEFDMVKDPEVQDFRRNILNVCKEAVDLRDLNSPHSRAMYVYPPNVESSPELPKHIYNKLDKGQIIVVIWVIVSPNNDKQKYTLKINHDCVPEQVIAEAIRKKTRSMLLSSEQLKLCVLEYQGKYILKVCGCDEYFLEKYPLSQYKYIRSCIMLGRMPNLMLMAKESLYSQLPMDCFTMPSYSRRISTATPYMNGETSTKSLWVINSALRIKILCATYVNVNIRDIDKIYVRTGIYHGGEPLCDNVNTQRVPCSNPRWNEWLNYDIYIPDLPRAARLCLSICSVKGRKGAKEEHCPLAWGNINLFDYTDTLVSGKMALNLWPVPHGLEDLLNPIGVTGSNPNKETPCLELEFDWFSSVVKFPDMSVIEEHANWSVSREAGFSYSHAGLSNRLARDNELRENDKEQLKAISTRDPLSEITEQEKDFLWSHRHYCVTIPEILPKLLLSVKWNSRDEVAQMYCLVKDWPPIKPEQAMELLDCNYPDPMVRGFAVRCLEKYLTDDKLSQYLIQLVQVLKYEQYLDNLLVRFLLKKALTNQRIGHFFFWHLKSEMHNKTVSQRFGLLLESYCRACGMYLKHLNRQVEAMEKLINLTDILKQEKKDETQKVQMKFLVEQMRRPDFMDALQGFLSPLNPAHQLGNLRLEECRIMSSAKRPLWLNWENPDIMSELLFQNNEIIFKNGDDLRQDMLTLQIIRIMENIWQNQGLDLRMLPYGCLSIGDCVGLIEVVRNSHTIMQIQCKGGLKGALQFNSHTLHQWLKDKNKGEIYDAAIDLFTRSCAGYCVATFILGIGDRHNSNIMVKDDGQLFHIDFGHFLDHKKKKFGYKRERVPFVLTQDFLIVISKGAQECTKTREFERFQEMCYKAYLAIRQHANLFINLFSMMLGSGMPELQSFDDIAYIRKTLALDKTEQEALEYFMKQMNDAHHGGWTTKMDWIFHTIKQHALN
T1 sequence (P27986 whole entry partner): as the sequence (P27986 whole entry partner) above

Row | SMILES | IC50 [1] | IC50 [2] | IC50 [3]
1 | Nc1nc2cc(-c3ccc4ncc(C(=O)NCCN5CCCC5)n4c3)ccc2o1 [Compound 296] | < 1 µM | < 1 µM | < 10 µM
2 | Nc1nc2cc(-c3ccc4nnc(-c5cccnc5)n4c3)ccc2o1 [Compound 300] | < 10 µM | > 10 µM | < 10 µM
3 | CN(C)C1CCN(C(=O)c2cnc3ccc(-c4ccc5oc(N)nc5c4)cn23)CC1 [Compound 304] | < 1 µM | > 10 µM | > 10 µM
4 | C[C@H]1CN(c2cnc3ccc(-c4ccc5nc(N)sc5c4)cc3n2)CCN1 [Compound 308] | < 1 µM | > 10 µM | < 1 µM
5 | C[C@H]1CN(c2cnc3ccc(-c4cccc5c(N)nsc45)cc3n2)CCN1 [Compound 321] | > 10 µM | > 10 µM | > 10 µM
6 | Nc1nc2cc(-c3ccc4ncc(N5CC(N6CCNC(=O)C6)C5)nc4c3)ccc2o1 [Compound 325] | < 0.1 µM | < 10 µM | < 1 µM
7 | CC1(C)CN(c2cnc3ccc(-c4ccc5oc(N)nc5c4)cc3n2)CCN1 [Compound 336] | < 1 µM | < 10 µM | < 1 µM
8 | C[C@H]1CN(c2cnc3cccc(-c4ccc5oc(N)nc5c4)c3n2)CCN1 [Compound 342] | > 10 µM | > 10 µM | > 10 µM
9 | C[C@H]1CN(c2cnc3cccc(-c4ccc5nc(N)oc5c4)c3n2)CCN1 [Compound 343] | > 10 µM | > 10 µM | < 10 µM
10 | Nc1nc2cc(-c3ccn4ncc(C(=O)N5CCCC5)c4c3)ccc2o1 [Compound 346] | < 0.1 µM | > 10 µM | < 10 µM
11 | Cc1c(-c2ccc3oc(N)nc3c2)ccc2ncc(C(=O)N3CCOCC3)n12 [Compound 349] | > 10 µM | > 10 µM | > 10 µM
12 | Cc1cc2oc(N)nc2cc1-c1ccc2ncc(C(=O)N3CCOCC3)n2c1 [Compound 352] | > 10 µM | > 10 µM | > 10 µM
13 | Cc1cc(-c2ccc3oc(N)nc3c2)cc2c(C(=O)N3CCOCC3)cnn12 [Compound 357] | < 1 µM | < 10 µM | < 10 µM
14 | Nc1nc2cc(-c3ccc4ncc(N5CC(N6CCOCC6)C5)nc4c3)cc(Cl)c2o1 [Compound 358] | < 0.1 µM | < 1 µM | < 1 µM
15 | Nc1nc2cc(-c3ccc4ncc(C(=O)N5CCOCC5)n4c3)c(Cl)cc2o1 [Compound 370] | < 10 µM | > 10 µM | > 10 µM
16 | Nc1nc2cc(-c3ccc4ncc(C(=O)N5CCOCC5)n4c3)c(F)cc2o1 [Compound 372] | < 1 µM | < 10 µM | < 10 µM
17 | Nc1nc2cc(-c3ccc4ncc(N5CC[C@@H](N6CCOCC6)C5)nc4c3)ccc2o1 [Compound 376] | < 0.1 µM | < 10 µM | < 10 µM
18 | Cc1c(-c2ccc3oc(N)nc3c2)ccc2ncc(N3CC(N4CCNCC4)C3)nc12 [Compound 386] | < 0.1 µM | > 10 µM | > 10 µM
19 | COCCN1CCN(c2cnc3ccc(-c4ccc5oc(N)nc5c4)cc3n2)CC1 [Compound 387] | < 0.1 µM | > 10 µM | < 1 µM
20 | Nc1nc2cc(-c3ccc4ncc(C(=O)N5CCOCC5)n4c3)cnc2o1 [Compound 400] | < 0.1 µM | > 10 µM | < 10 µM
21 | Nc1nc2cc(-c3nc4cc(-c5cccnc5)cnc4s3)ccc2o1 [Compound 402] | > 10 µM | > 10 µM | > 10 µM
22 | Nc1nc2cc(-c3ccc4nc(N)c(N5CC(N6CCOCC6)C5)nc4c3)ccc2o1 [Compound 404] | > 10 µM | > 10 µM | > 10 µM
23 | CS(=O)(=O)Nc1nc2cc(-c3ccc4ncc(C(=O)N5CCOCC5)n4c3)ccc2o1 [Compound 405] | > 10 µM | > 10 µM | > 10 µM
24 | CNc1nc2cc(-c3ccc4ncc(C(=O)N5CCOCC5)n4c3)ccc2o1 [Compound 406] | < 10 µM | > 10 µM | < 10 µM

Row | SMILES | IC50 [1] | IC50 [2] | IC50 [3]
25 | COc1ncc(-c2ccc3ncc(C(=O)N4CCOCC4)n3c2)cc1N [Compound 414] | < 10 µM | > 10 µM | > 10 µM
26 | COc1ncc(-c2ccc3ncc(C(=O)N4CCOCC4)n3c2)cc1NS(=O)(=O)c1cccc(F)c1 [Compound 423] | < 0.1 µM | < 0.1 µM | < 1 µM
27 | Nc1nc2cc(-c3ccc4[nH]nc(N)c4c3)ccc2o1 [Compound 427] | > 10 µM | > 10 µM | > 10 µM
28 | CC(=O)Nc1n[nH]c2cc(-c3ccc4oc(N)nc4c3)ccc12 [Compound 430] | < 10 µM | > 10 µM | < 10 µM
29 | CC(=O)Nc1n[nH]c2ccc(-c3ccc4oc(N)nc4c3)cc12 [Compound 431] | > 10 µM | > 10 µM | > 10 µM
30 | Nc1nc2ccc(-c3cc(F)c4oc(N)nc4c3)cc2o1 [Compound 433] | < 1 µM | < 10 µM | < 1 µM
31 | CC(=O)Nc1nc2ccc(-c3cc(F)c4oc(N)nc4c3)cc2s1 [Compound 434] | < 0.1 µM | < 0.1 µM | < 0.1 µM
32 | Nc1nc2cc(-c3ccc4nc(N)sc4c3)cc(F)c2o1 [Compound 436] | < 0.1 µM | < 1 µM | < 0.1 µM
33 | Nc1nc2cc(-c3cc(F)c4ncc(C(=O)N5CCOCC5)n4c3)ccc2o1 [Compound 438] | < 10 µM | > 10 µM | > 10 µM
34 | O=C(c1cnc2ccc(-c3cccc(S(=O)(=O)Nc4ccccc4)c3)cn12)N1CCOCC1 [Compound 440] | > 10 µM | > 10 µM | > 10 µM
35 | O=C(c1cnc2ccc(-c3cccc(S(=O)(=O)Nc4cc(F)ccc4F)c3)cn12)N1CCOCC1 [Compound 441] | > 10 µM | > 10 µM | > 10 µM
36 | COc1ccc(-c2ccc3ncc(C(=O)N4CCOCC4)n3c2)cc1S(=O)(=O)Nc1ccccc1 [Compound 444] | < 10 µM | > 10 µM | > 10 µM
37 | O=C(c1cnc2ccc(-c3cncc(S(=O)(=O)Nc4ccccc4)c3)cn12)N1CCOCC1 [Compound 447] | < 10 µM | > 10 µM | > 10 µM
38 | O=C(c1cnc2ccc(-c3cnc(Cl)c(NS(=O)(=O)c4ccccc4)c3)cn12)N1CCOCC1 [Compound 451] | < 0.1 µM | < 0.1 µM | < 1 µM
39 | O=C(c1cnc2ccc(-c3cnc(Cl)c(NS(=O)(=O)c4ccccc4F)c3)cn12)N1CCOCC1 [Compound 452] | < 0.1 µM | < 0.1 µM | < 1 µM
40 | COc1ccc(-c2ccc3ncc(C(=O)N4CCOCC4)n3c2)cc1NS(=O)(=O)c1ccccc1 [Compound 455] | < 10 µM | > 10 µM | > 10 µM
41 | O=C(c1cnc2ccc(-c3ccc(Cl)c(NS(=O)(=O)c4ccccc4)c3)cn12)N1CCOCC1 [Compound 459] | < 1 µM | > 10 µM | > 10 µM
42 | CN(C(=O)c1cnc2ccc(-c3ccc4oc(N)nc4c3)cn12)C1CCOCC1 [Compound 472] | < 0.1 µM | < 10 µM | < 10 µM
43 | Nc1nc2cc(-c3ccc4ncc(C(=O)N5CC[C@@H](F)C5)n4c3)ccc2o1 [Compound 475] | < 0.1 µM | < 10 µM | > 10 µM
44 | Nc1nc2cc(-c3ccc4ncc(C(=O)N5CC[C@@H](n6cccn6)C5)n4c3)ccc2o1 [Compound 477] | < 0.1 µM | < 10 µM | > 10 µM
45 | Nc1nc2cc(-c3ccc4ncc(C(=O)N5CC[C@H](n6cccn6)C5)n4c3)ccc2o1 [Compound 478] | < 0.1 µM | < 1 µM | < 10 µM
46 | C[C@@H]1CCCN1C(=O)c1cnc2ccc(-c3ccc4oc(N)nc4c3)cn12 [Compound 481] | < 0.1 µM | < 10 µM | < 10 µM
47 | Nc1n[nH]c2cc(-c3ccc4ncc(C(=O)N5CCOCC5)n4c3)ccc12 [Compound 487] | > 10 µM | > 10 µM | > 10 µM
